In patent US11566017B2, “Dihydroquinazolinone compound or pharmacologically acceptable salt, and cell growth inhibitor” (RIKEN, priority 2017, dated 2023):

How the values were obtained:
tankyrase 1 (TNKS1) = target: T1, tankyrase 1 (TNKS1) (Homo sapiens, UniProt O95271); assay: Tankyrase inhibitory activity test (ELISA, auto-poly(ADP-ribosyl)ation), tankyrase 1; format: biochemical; conditions: Flag tagged tankyrase 1 (1,024-1,327aa, SAM+PARP); read-out: TNKS1 (inhibitory activity against tankyrase 1, IC50)
T1 construct: tankyrase 1 (1,024-1,327aa, SAM+PARP); made in house; host or cells: cell-free protein expression system
T1 sequence (O95271 1024-1327): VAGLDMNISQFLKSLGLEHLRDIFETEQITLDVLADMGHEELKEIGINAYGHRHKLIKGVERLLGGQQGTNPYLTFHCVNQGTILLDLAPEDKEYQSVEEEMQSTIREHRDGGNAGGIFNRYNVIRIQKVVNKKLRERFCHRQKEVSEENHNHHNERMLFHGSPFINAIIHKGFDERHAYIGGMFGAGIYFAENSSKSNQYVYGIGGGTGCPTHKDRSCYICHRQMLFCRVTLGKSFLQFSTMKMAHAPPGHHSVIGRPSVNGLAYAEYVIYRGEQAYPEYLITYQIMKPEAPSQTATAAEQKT
Procedure: (§1) The enzymatic activity of tankyrase 1 and the enzymatic activity of tankyrase 2 were measured by the ELISA method based on assessment of auto-poly(ADP-ribosyl)ation to evaluate the tankyrase inhibitory activity of the compound prepared in each of Examples (test compound) (inhibitory activity against tankyrase 1 (TNKS1) and inhibitory activity against tankyrase 2 (TNKS2)). First, Flag tagged tankyrase 1 (1,024-1,327aa, SAM+PARP) and tankyrase 2 (613-1,116aa, ANK5+SAM+PARP) were synthesized with a cell-free protein expression system, and diluted with a Tris buffer solution (50 mM Tris-HCl (pH 8.0), 150 mM NaCl, 10% glycerol). 50 μL of the diluted tankyrase 1 or tankyrase 2 was added to a plate with an anti-FLAG M2 monoclonal antibody immobilized thereon (Anti-FLAG High-Sensitivity M2-Coated Plate) (Sigma-Aldrich), and the plate was left standing overnight at 4° C. Thereafter, the plate was washed four times with a PBS (PBST) buffer containing 0.1% Triton X-100. For Example 84, the Anti-FLAG High-Sensitivity M2-Coated Plate was replaced by an immunoplate (Thermo Fisher Scientific), tankyrase 1 or tankyrase 2 was immobilized on the immunoplate, and the immunoplate was then blocked with Blocking One (nacalai tesque), then washed with a PBS (PBST) buffer, and used as the following plate.
(§2) Subsequently, the test compound diluted with an assay buffer (50 mM Tris-HCl (pH 8.0), 4 mM MgCl2, 0.2 mM DTT) (DMSO was used as a control) was added to each well of the plate, and the plate was left standing at room temperature for 10 minutes. Thereafter, a biotin-labeled NAD solution (225 μM NAD, 25 μM 6-Biotin-17-NAD (Travigen, Inc.)) was added and mixed as a donor substrate, and the mixture was reacted at 30° C. for 45 minutes. To blank wells was added distilled water instead of the biotin-labeled NAD solution. After the reaction, the plate was washed with a PBST buffer four times. Thereafter, HRP (horseradish peroxidase)-labeled streptavidin (Travigen, Inc.) was diluted with a PBS buffer by 1,000 times, and added to each well, and the mixture was reacted at room temperature for 20 minutes. The plate was washed with a PBST buffer four times, a chemiluminescent substrate solution TACS-Sapphire (Travigen, Inc.) was then added to each well, the mixture was reacted at room temperature for 20 minutes, and the chemiluminescence intensity was measured using a chemiluminescence measuring apparatus. For Example 84, the streptavidin was diluted by 5,000 times, the chemiluminescent substrate solution TACS-Sapphire was replaced by an ELISA POD substrate TMB solution easy (nacalai tesque), the mixture was reacted at room temperature for 30 minutes, and the chemiluminescence intensity was measured using a chemiluminescence measuring apparatus.
(§3) The residual enzymatic activity in the presence of the test compound was determined from the following expression. On the basis of the residual enzymatic activity at each of multiple concentrations of the test compound, the enzyme inhibitory activity was calculated in terms of a 50%-inhibition concentration (IC50 value) using data analysis software Origin (LightStone Corp.). Residual activity (%)={(chemiluminescence intensity with test compound added)−(chemiluminescence intensity of blank)}/{(chemiluminescence intensity of control)−(chemiluminescence intensity of blank)}

tankyrase 2 (TNKS2) = target: T2, tankyrase 2 (TNKS2) (Homo sapiens, UniProt Q9H2K2); assay: Tankyrase inhibitory activity test (ELISA, auto-poly(ADP-ribosyl)ation), tankyrase 2; format: biochemical; conditions: Flag tagged tankyrase 2 (613-1,116aa, ANK5+SAM+PARP); read-out: TNKS2 (inhibitory activity against tankyrase 2, IC50)
T2 construct: tankyrase 2 (613-1,116aa, ANK5+SAM+PARP); made in house; host or cells: cell-free protein expression system
Procedure: as §1, §2, §3

[1] = system: human colorectal cancer cell line COLO-320DM; assay: Cell proliferation inhibitory activity test (Celltiter-Glo); format: cell-based; conditions: COLO-320DM cells, 96 hours
Procedure: The cell proliferation inhibitory activity of the compound, which had been prepared in each of Examples, against the human colorectal cancer cell line COLO-320DM was evaluated by Celltiter-Glo Luminescent Cell Viability Assay (Promega Corporation; G7573). COLO-320DM cells were cultured in RPMI-1640 medium containing 2 mM glutamine (Wako Pure Chemical Industries, Ltd; 189-02025) supplemented with 10% fetal bovine serum. The cultured cells were washed with PBS, and then dissociated with trypsin/EDTA, and a cell solution with 3×10^4 cells/mL was prepared.
Subsequently, the cell solution was seeded in a 96-well microplate (Thermo/Nunc Company; 136101) in an amount of 70 μL per well, and cultured overnight under the condition of 37° C. and 5% CO2. Next day, a test compound solution obtained by diluting the test compound (DMSO solution) with a cell culture medium (final concentration of DMSO was 1%) was added in an amount of 10 μL per well, and the mixture was reacted under the condition of 37° C. and 5% CO2 for 96 hours (a 1% DMSO solution was used as a control). Thereafter, a Celltiter-GloLuminescent Cell Viability Assay reagent (Promega Corporation; G7573) was added in an amount of 80 μL per well, the mixture was stirred with a shaker for 2 minutes while light was blocked with an aluminum foil, and the mixture was incubated at room temperature for 10 minutes.
Thereafter, a luminescence signal was measured with a luminometer (Biotech Company; Synergy). The ratio of cell proliferation in each compound addition group to cell proliferation in a control group containing no test compound solution, where cell proliferation in the control group is 100%, was calculated and the value of a compound concentration necessary for suppressing the amount of residual cells to 50% of that in the control (GI50) was calculated as the cytostatic activity. […] An unevaluated test compound was designated as “NT”.

For `CN1CCN(c2ccc(-c3cccc(-c4n[nH]cc4C4NC(=O)c5ccccc5N4C)c3)cc2)CC1` (stereo not drawn) [Example 23, 1-Methyl-2-[5-[3-[4-(4-methylpiperazin-1-yl)phenyl]phenyl]-1H-pyrazol-4-yl]-2,3-dihydroquinazolin-4-one], the IC50 (tankyrase 1 (TNKS1)) was 20 to 50 nM, the IC50 (tankyrase 2 (TNKS2)) was 20 to 50 nM and the GI50 [1] was 1000 to 10000 nM.
`CN1c2ccccc2C(=O)NC1c1c[nH]nc1-c1ccc(-c2cccc(O)c2)cc1` (stereo not drawn) [Example 24, 2-[3-[4-(3-Hydroxyphenyl)phenyl]-1H-pyrazol-4-yl]-1-methyl-2,3-dihydroquinazolin-4-one] was tested, and the IC50 (tankyrase 1 (TNKS1)) was 5 to 20 nM, the IC50 (tankyrase 2 (TNKS2)) was 5 to 20 nM and the GI50 [1] was ≥ 10000 nM.
For `CN1CCN(Cc2ccc(-c3ccc(-c4n[nH]cc4C4NC(=O)c5ccccc5N4C)cc3)cc2)CC1` (stereo not drawn) [Example 25, 1-Methyl-2-[5-[4-[4-[(4-methylpiperazin-1-yl)methyl]phenyl]phenyl]-1H-pyrazol-4-yl]-2,3-dihydroquinazolin-4-one], the IC50 (tankyrase 1 (TNKS1)) was 5 to 20 nM, the IC50 (tankyrase 2 (TNKS2)) was 20 to 50 nM and the GI50 [1] was ≥ 10000 nM.
For `CN1CCN(Cc2cccc(-c3ccc(-c4n[nH]cc4C4NC(=O)c5ccccc5N4C)cc3)c2)CC1` (stereo not drawn) [Example 26, 1-Methyl-2-[5-[4-[3-[(4-methylpiperazin-1-yl)methyl]phenyl]phenyl]-1H-pyrazol-4-yl]-2,3-dihydroquinazolin-4-one], the IC50 (tankyrase 1 (TNKS1)) was 20 to 50 nM, the IC50 (tankyrase 2 (TNKS2)) was 5 to 20 nM and the GI50 [1] was ≥ 10000 nM.
In the case of `CN1c2ccccc2C(=O)NC1c1c[nH]nc1-c1ccc(OCC(F)(F)F)cc1` (stereo not drawn) [Example 27, 1-Methyl-2-[3-(4-(2,2,2-trifluoromethoxy)phenyl]-1H-pyrazol-4-yl]-2,3-dihydroquinazolin-4-one], the IC50 (tankyrase 1 (TNKS1)) is reported as < 5 nM, the IC50 (tankyrase 2 (TNKS2)) is reported as 5 to 20 nM and the GI50 [1] is reported as ≥ 10000 nM.
In the case of `CN1c2ccccc2C(=O)NC1c1c[nH]nc1-c1cccc(F)c1` (stereo not drawn) [Example 28, 2-[3-(3-Fluorophenyl)-1H-pyrazol-4-yl]-1-methyl-2,3-dihydroquinazolin-4-one], the IC50 (tankyrase 1 (TNKS1)) is reported as < 5 nM, the IC50 (tankyrase 2 (TNKS2)) is reported as 5 to 20 nM and the GI50 [1] is reported as 1000 to 10000 nM.
In the case of `CN1c2ccccc2C(=O)NC1c1c[nH]nc1-c1ccc(-c2ccc(N3CCOCC3)cc2)cc1` (stereo not drawn) [Example 29], the IC50 (tankyrase 1 (TNKS1)) is reported as 5 to 20 nM, the IC50 (tankyrase 2 (TNKS2)) is reported as 5 to 20 nM and the GI50 [1] is reported as 1000 to 10000 nM.
`CN1c2ccccc2C(=O)NC1c1c[nH]nc1-c1cccc(-c2ccc(N3CCOCC3)cc2)c1` (stereo not drawn) [Example 30] was tested, and the IC50 (tankyrase 1 (TNKS1)) was 5 to 20 nM, the IC50 (tankyrase 2 (TNKS2)) was 5 to 20 nM and the GI50 [1] was 1000 to 10000 nM.
For `CN1c2ccccc2C(=O)NC1c1c[nH]nc1-c1ccc(C#N)cc1` (stereo not drawn) [Example 31, 4-[4-(1-Methyl-4-oxo-2,3-dihydroquinazolin-2-yl)-1H-pyrazol-3-yl]benzonitrile], the IC50 (tankyrase 1 (TNKS1)) was 5 to 20 nM, the IC50 (tankyrase 2 (TNKS2)) was 5 to 20 nM and the GI50 [1] was ≥ 10000 nM.
In the case of `CN1CCN(Cc2ccc(-c3cccc(-c4n[nH]cc4C4NC(=O)c5ccccc5N4C)c3)cc2)CC1` (stereo not drawn) [Example 32], the IC50 (tankyrase 1 (TNKS1)) is reported as 20 to 50 nM, the IC50 (tankyrase 2 (TNKS2)) is reported as 20 to 50 nM and the GI50 [1] is reported as ≥ 10000 nM.
`CN1CCN(Cc2cccc(-c3cccc(-c4n[nH]cc4C4NC(=O)c5ccccc5N4C)c3)c2)CC1` (stereo not drawn) [Example 33] was tested, and the IC50 (tankyrase 1 (TNKS1)) was 20 to 50 nM, the IC50 (tankyrase 2 (TNKS2)) was 20 to 50 nM and the GI50 [1] was ≥ 10000 nM.
`CN(C)c1ccc(-c2ccc(-c3n[nH]cc3C3NC(=O)c4ccccc4N3C)cc2)cc1` (stereo not drawn) [Example 34, 2-[5-[4-[4-(Dimethylamino)phenyl]phenyl]-1H-pyrazol-4-yl]-1-methyl-2,3-dihydroquinazolin-4-one] showed an IC50 (tankyrase 1 (TNKS1)) of 20 to 50 nM, an IC50 (tankyrase 2 (TNKS2)) of 20 to 50 nM and a GI50 [1] of 1000 to 10000 nM.
With `CN(C)c1ccc(-c2cccc(-c3n[nH]cc3C3NC(=O)c4ccccc4N3C)c2)cc1` (stereo not drawn) [Example 35, 2-[5-[3-[4-(Dimethylamino)phenyl]phenyl]-1H-pyrazol-4-yl]-1-methyl-2,3-dihydroquinazolin-4-one] the IC50 (tankyrase 1 (TNKS1)) was 20 to 50 nM, the IC50 (tankyrase 2 (TNKS2)) was 20 to 50 nM and the GI50 [1] was ≥ 10000 nM.
For `CCOC(=O)Cc1ccc(-c2ccc(-c3[nH]ncc3C3NC(=O)c4ccccc4N3C)cc2)cc1` (stereo not drawn) [Example 36, Ethyl 2-[4-[4-[4-(1-methyl-4-oxo-2,3-dihydroquinazolin-2-yl)-1H-pyrazol-5-yl]phenyl]phenyl]acetate], the IC50 (tankyrase 1 (TNKS1)) was 20 to 50 nM, the IC50 (tankyrase 2 (TNKS2)) was 20 to 50 nM and the GI50 [1] was ≥ 10000 nM.
`CCOC(=O)Cc1ccc(-c2cccc(-c3n[nH]cc3C3NC(=O)c4ccccc4N3C)c2)cc1` (stereo not drawn) [Example 37, Ethyl 2-[4-[3-[4-(1-methyl-4-oxo-2,3-dihydroquinazolin-2-yl)-1H-pyrazol-5-yl]phenyl]phenyl]acetate] was tested, and the IC50 (tankyrase 1 (TNKS1)) was 20 to 50 nM, the IC50 (tankyrase 2 (TNKS2)) was 20 to 50 nM and the GI50 [1] was ≥ 10000 nM.
With `CN1CCN(c2cccc(-c3ccc(-c4[nH]ncc4C4NC(=O)c5ccccc5N4C)cc3)c2)CC1` (stereo not drawn) [Example 38, 1-Methyl-2-[5-[4-[3-(4-methylpiperazin-1-yl)phenyl]phenyl]-1H-pyrazol-4-yl]-2,3-dihydroquinazolin-4-one] the IC50 (tankyrase 1 (TNKS1)) was 20 to 50 nM, the IC50 (tankyrase 2 (TNKS2)) was 20 to 50 nM and the GI50 [1] was 1000 to 10000 nM.
In the case of `CN1c2ccccc2C(=O)NC1c1c[nH]nc1-c1ccc(-c2ccnc3[nH]ccc23)cc1` (stereo not drawn) [Example 39, 1-Methyl-2-[3-[4-(1H-pyrrolo[2,3-b]pyridin-4-yl)phenyl]-1H-pyrazol-4-yl]-2,3-dihydroquinazolin-4-one], the IC50 (tankyrase 1 (TNKS1)) is reported as 20 to 50 nM, the IC50 (tankyrase 2 (TNKS2)) is reported as 20 to 50 nM and the GI50 [1] is reported as ≥ 10000 nM.
For `CN1c2ccccc2C(=O)NC1c1c[nH]nc1-c1ccc(-c2ccnc3ccccc23)cc1` (stereo not drawn) [Example 40, 1-Methyl-2-[3-(4-quinolin-4-ylphenyl)-1H-pyrazol-4-yl]-2,3-dihydroquinazolin-4-one], the IC50 (tankyrase 1 (TNKS1)) was 20 to 50 nM, the IC50 (tankyrase 2 (TNKS2)) was 20 to 50 nM and the GI50 [1] was ≥ 10000 nM.
With `CN1c2ccccc2C(=O)NC1c1c[nH]nc1-c1ccc(-c2ccc(N3CCNCC3)cc2)cc1` (stereo not drawn) [Example 41] the IC50 (tankyrase 1 (TNKS1)) was 20 to 50 nM, the IC50 (tankyrase 2 (TNKS2)) was 5 to 20 nM and the GI50 [1] was 1000 to 10000 nM.
`CN1c2ccccc2C(=O)NC1c1c[nH]nc1-c1cccc(Cl)c1` (stereo not drawn) [Example 42, 2-[3-(3-Chlorophenyl)-1H-pyrazol-4-yl]-1-methyl-2,3-dihydroquinazolin-4-one] showed an IC50 (tankyrase 1 (TNKS1)) of 20 to 50 nM, an IC50 (tankyrase 2 (TNKS2)) of 5 to 20 nM and a GI50 [1] of 1000 to 10000 nM.
`CN1c2ccccc2C(=O)NC1c1c[nH]nc1-c1ccc(Br)c(F)c1` (stereo not drawn) [Example 43, 2-[3-(4-Bromo-3-fluorophenyl)-1H-pyrazol-4-yl]-1-methyl-2,3-dihydroquinazolin-4-one] was tested, and the IC50 (tankyrase 1 (TNKS1)) was < 5 nM, the IC50 (tankyrase 2 (TNKS2)) was < 5 nM and the GI50 [1] was ≥ 10000 nM.
Work on `CN1CCN(c2ccc(-c3ccc(-c4n[nH]cc4C4NC(=O)c5ccccc5N4C)cc3F)cc2)CC1` (stereo not drawn) [Example 44, 2-[5-[3-Fluoro-4-[4-(4-methylpiperazin-1-yl)phenyl]phenyl]-1H-pyrazol-4-yl]-1-methyl-2,3-dihydroquinazolin-4-one] yielded an IC50 (tankyrase 1 (TNKS1)) of 5 to 20 nM, an IC50 (tankyrase 2 (TNKS2)) of 5 to 20 nM and a GI50 [1] of 1000 to 10000 nM.
